Patent US10683553B2, “Method for determining sensitivity to simultaneous inhibitor against PARP and Tankyrase” (THE ASAN FOUNDATION, priority 2015, dated 2020)
Entries after “also recorded” stand apart in the source; their conditions may differ.

Key:
[1] = test system: HCT8 human colon cancer cell line; experiment: Trypan blue staining apoptosis assay; format: cell-based; settings: HCT8 (p53 WT/LIG4 WT); 25 μM and 50 μM, 48 hours
Text: (§1) In order to analyze the degree of apoptosis of Compounds A and B, which are novel PARP/Tankyrase simultaneous inhibitors, in a cell line RKO in which the p53 genotype is a normal type and an LIG4 genotype is a mutant type, a cell line SW620 in which the p53 genotype is a mutant type and an LIG4 genotype is a normal type, a cell line HCT8 in which the p53 genotype and an LIG4 genotype are normal, and a cell line KM12C in which the p53 genotype and an LIG4 genotype are mutant, the human colon cancer cell lines of RKO, HCT, SW620 and KM12C with different p53 genotype and LIG4 genotype were cultured in RPMI1640 (10% FBS, 1% penicillin/streptomycin) and cultured in a 60 mm plate at 1×10^5 per well for 24 hours at 37° C. Compounds A and B, which are novel PARP/Tankyrase simultaneous inhibitors, and olaparib, which is a competitive drug PARP inhibitor, and NVP-TNKS656, which is a Tankyrase inhibitor, were treated with each of 25 μM and 50 μM. After 48 hours of culturing, the number of cells was measured by trypan blue staining assay to confirm the degree of apoptosis.

[2] = test system: KM12C human colon cancer cell line; experiment: Trypan blue staining apoptosis assay; format: cell-based; settings: KM12C (p53 MT/LIG4 MT); 25 μM and 50 μM, 48 hours
Text: as §1

[3] = test system: LoVo human colon cancer cell line; experiment: Trypan blue staining apoptosis assay; format: cell-based; settings: LoVo (p53 WT/LIG4 MT); 25 μM and 50 μM, 48 hours
Text: (§2) In order to analyze the degree of apoptosis of Compound A, which is a novel PARP/Tankyrase simultaneous inhibitor according to a p53 genotype and LIG4 genotype, the present inventors treated a novel PARP/Tankyrase simultaneous inhibitor, Compound A, and a competitive drug PARP inhibitor, olaparib, in RKO, LoVo human colon cancer cell line in which the p53 gene is a normal type and the LIG4 gene is a mutant type and an SW620 human colon cancer cell line in which the p53 gene is a mutant type and the LIG4 gene is a normal type. The number of cells was measured by trypan blue staining assay to confirm the degree of apoptosis. The conditions and methods of the experiment were as follows: RKO, LoVo human colon cancer cell line in which the p53 gene is a normal type and the LIG4 gene is a mutant type and the SW620 human colon cancer cell line in which the p53 gene is a mutant type and the LIG4 gene is a normal type were cultured in RPMI1640 (10% FBS, 1% penicillin/streptomycin) and cultured in a 60 mm plate at 1×10^5 per well for 24 hours at 37° C. Compound A, which is a novel PARP/Tankyrase simultaneous inhibitor, and olaparib, which is a competitive drug PARP inhibitor, were treated with each of 25 μM and 50 μM and were cultured for 48 hours. The number of cells was measured by trypan blue staining assay to confirm the degree of apoptosis.
In order to analyze the degree of apoptosis of Compound A, which is a novel PARP/Tankyrase simultaneous inhibitor, according to the p53 genotype and an LIG4 genotype, the present inventors treated Compounds A and B, which are novel PARP/Tankyrase simultaneous inhibitors, in the RKO and LoVo human colon cancer cell lines in which the p53 gene is a normal type and an LIG4 gene is a mutant type. Then, the number of cells was measured by trypan blue staining assay to confirm the degree of apoptosis. The RKO and LoVo human colon cancer cell lines were cultured under the same conditions as in Example 5. […] After 48 hours of culturing, the number of cells was measured by trypan blue staining assay to confirm the degree of apoptosis.

[4] = test system: KM12C human colon cancer cell line; experiment: Xenograft tumor inhibition; format: in vivo, nude mouse (BALB/c-nude); settings: KM12C (p53 MT/LIG4 MT) xenograft, orally 25 mpk and 50 mpk daily
Text: (§3) In order to analyze the tumor inhibition effect on Compound A, which is a novel PARP/Tankyrase simultaneous inhibitor, in an in vivo animal model when a p53 genotype and an LIG4 genotype are mutant types, the present inventors transplanted the KM12C human colon cancer cell line in which a p53 genotype and an LIG4 genotype are mutant types into a 6-week-old nude mouse (BALB/c-nude, purchased from the central experimental animal) and administered with Compound A, which is a novel PARP/Tankyrase simultaneous inhibitor, and olaparib, which is a competitive drug PARP inhibitor. Then, the size of tumor was measured to confirm the degree of tumor inhibition effect. The conditions and methods of the experiment were as follows: KM12C human colon cancer cell line in which a p53 genotype and an LIG4 genotype are mutant types was cultured in RPMI1640 (10% FBS, 1% penicillin/streptomycin). When the size of the tumor reached 100 mm^3 after being transplanted into a nude mouse per 1×10^7, Compound A, which is a novel PARP/Tankyrase simultaneous inhibitor, and olaparib, which is a competitive drug PARP inhibitor, were orally administered at 25 mpk and 50 mpk daily for a total of 18 days. The size of a tumor was measured every three days. After the completion of drug administration, the tumors were harvested and weighed.
as §3, with “on Compound B, which is” for “on Compound A, which is”, “with Compound B, which is” for “with Compound A, which is”, “PARP/Tankyrase simultaneous inhibitor. Then,” for “PARP/Tankyrase simultaneous inhibitor, and olaparib, which is a competitive drug PARP inhibitor. Then,”, “1×10^7, Compound B, which is” for “1×10^7, Compound A, which is”, “simultaneous inhibitor, was orally administered” for “simultaneous inhibitor, and olaparib, which is a competitive drug PARP inhibitor, were orally administered”, “total of 15 days. The” for “total of 18 days. The”

[5] = test system: RKO human colon cancer cell line; experiment: Trypan blue staining apoptosis assay; format: cell-based; settings: RKO (p53 WT/LIG4 MT); 25 μM and 50 μM, 48 hours
Text: as §2
In order to analyze the degree of apoptosis of Compound A, which is a novel PARP/Tankyrase simultaneous inhibitor, according to the p53 genotype and an LIG4 genotype, the present inventors treated Compounds A and B, which are novel PARP/Tankyrase simultaneous inhibitors, in the RKO and LoVo human colon cancer cell lines in which the p53 gene is a normal type and an LIG4 gene is a mutant type. Then, the number of cells was measured by trypan blue staining assay to confirm the degree of apoptosis. The RKO and LoVo human colon cancer cell lines were cultured under the same conditions as in Example 5. Compounds A and B, which are novel PARP/Tankyrase simultaneous inhibitors, were treated with 25 μM and 50 μM, respectively, for 48 hours. After 48 hours of culturing, the number of cells was measured by trypan blue staining assay to confirm the degree of apoptosis. […]

[6] = test system: SW620 human colon cancer cell line; experiment: Trypan blue staining apoptosis assay; format: cell-based; settings: SW620 (p53 MT/LIG4 WT); 25 μM and 50 μM, 48 hours
Text: as §2, §1

CCOc1cc(CN(C)C)cc2[nH]c(=O)c3c(c12)NCCC3 [Compound A, 8-[(dimethylamino)methyl]-10-ethoxy-1,2,3,4-tetrahydrobenzo[h][1,6]naphthyridin-5(6H)-one]
degree of apoptosis (trypan blue cell count) [1]: No apoptosis occurred
degree of apoptosis (trypan blue cell count) [2]: No apoptosis occurred
degree of apoptosis (trypan blue cell count) [3]: apoptosis was induced
tumor size ([4]; 18 days): no change
tumor weight ([4]; 18 days): no change
degree of apoptosis (trypan blue cell count) [5]: apoptosis was induced; also recorded: possible to observe the apoptosis
degree of apoptosis (trypan blue cell count) [6]: low apoptosis effect; also recorded: No apoptosis occurred

N#Cc1ccc(N2CCN(Cc3ccc4c5c(c(=O)[nH]c4c3)CCCN5)CC2)nc1 [Compound B, 6-{4-[(5-oxo-1,2,3,4,5,6-hexahydrobenzo[h][1,6]naphthyridin-8-yl)methyl]piperazin-1-yl}nicotinonitrile]
degree of apoptosis (trypan blue cell count) [1]: No apoptosis occurred
degree of apoptosis (trypan blue cell count) [2]: No apoptosis occurred
degree of apoptosis (trypan blue cell count) [3]: apoptosis effect is high by virtue of Compound B as compared to Compound A
tumor size ([4]; 15 days): no change
tumor weight ([4]; 15 days): no change
degree of apoptosis (trypan blue cell count) [5]: apoptosis effect is high by virtue of Compound B as compared to Compound A; also recorded: possible to observe the apoptosis
degree of apoptosis (trypan blue cell count) [6]: No apoptosis occurred

O=C(c1cc(Cc2n[nH]c(=O)c3ccccc23)ccc1F)N1CCN(C(=O)C2CC2)CC1 [olaparib, reference compound]
degree of apoptosis (trypan blue cell count) [1]: No apoptosis occurred
degree of apoptosis (trypan blue cell count) [2]: No apoptosis occurred
degree of apoptosis (trypan blue cell count) [3]: no apoptosis effect was shown
tumor size ([4]; 18 days): no change
tumor weight ([4]; 18 days): no change
degree of apoptosis (trypan blue cell count) [5]: no apoptosis effect was shown; also recorded: no change in apoptosis
degree of apoptosis (trypan blue cell count) [6]: low apoptosis effect; also recorded: No apoptosis occurred
